# In publication PMC11477426, “Interaction of Tri-Cyclic Nucleobase Analogs with Enzymes of Purine Metabolism: Xanthine Oxidase and Purine Nucleoside Phosphorylase” (International Journal of Molecular Sciences, 2024):
# Assays:
# xanthine oxidase (XO) [1] = molecular target: T1, xanthine oxidase (XO) (Bos taurus, UniProt P80457); experiment: isothermal titration calorimetry (estimate only); also oxidation kinetics, apparent Km […] at pH […] and […] at pH […]; type: binding; parameters: gene XDH; commercial XO from bovine milk
# xanthine oxidase (XO) [2] = molecular target: T1, xanthine oxidase (XO); experiment: competition with oxidation of I, fluorimetric assay, pH […]; type: biochemical; parameters: gene XDH; commercial XO from bovine milk (purified enzyme)
# [3] = molecular target: T2, purine nucleoside phosphorylase (WT PNP) (Escherichia coli, UniProt P0ABP8); experiment: crystal structure ([…] Å) and isothermal titration calorimetry; type: binding
# T2 construct: gene deoD; recombinant wild-type E. coli PNP, hexamer
# xanthine oxidase (XO) [4] = molecular target: T1, xanthine oxidase (XO); experiment: isothermal titration calorimetry (estimate only); weak substrate in oxidation assay; type: binding; parameters: gene XDH; commercial XO from bovine milk
# Excerpt: isothermal titration calorimetry (estimate only); weak substrate in oxidation assay on xanthine oxidase (XO) | the endo- and exothermic processes were again observed.
# T1 sequence (P80457 2-1332): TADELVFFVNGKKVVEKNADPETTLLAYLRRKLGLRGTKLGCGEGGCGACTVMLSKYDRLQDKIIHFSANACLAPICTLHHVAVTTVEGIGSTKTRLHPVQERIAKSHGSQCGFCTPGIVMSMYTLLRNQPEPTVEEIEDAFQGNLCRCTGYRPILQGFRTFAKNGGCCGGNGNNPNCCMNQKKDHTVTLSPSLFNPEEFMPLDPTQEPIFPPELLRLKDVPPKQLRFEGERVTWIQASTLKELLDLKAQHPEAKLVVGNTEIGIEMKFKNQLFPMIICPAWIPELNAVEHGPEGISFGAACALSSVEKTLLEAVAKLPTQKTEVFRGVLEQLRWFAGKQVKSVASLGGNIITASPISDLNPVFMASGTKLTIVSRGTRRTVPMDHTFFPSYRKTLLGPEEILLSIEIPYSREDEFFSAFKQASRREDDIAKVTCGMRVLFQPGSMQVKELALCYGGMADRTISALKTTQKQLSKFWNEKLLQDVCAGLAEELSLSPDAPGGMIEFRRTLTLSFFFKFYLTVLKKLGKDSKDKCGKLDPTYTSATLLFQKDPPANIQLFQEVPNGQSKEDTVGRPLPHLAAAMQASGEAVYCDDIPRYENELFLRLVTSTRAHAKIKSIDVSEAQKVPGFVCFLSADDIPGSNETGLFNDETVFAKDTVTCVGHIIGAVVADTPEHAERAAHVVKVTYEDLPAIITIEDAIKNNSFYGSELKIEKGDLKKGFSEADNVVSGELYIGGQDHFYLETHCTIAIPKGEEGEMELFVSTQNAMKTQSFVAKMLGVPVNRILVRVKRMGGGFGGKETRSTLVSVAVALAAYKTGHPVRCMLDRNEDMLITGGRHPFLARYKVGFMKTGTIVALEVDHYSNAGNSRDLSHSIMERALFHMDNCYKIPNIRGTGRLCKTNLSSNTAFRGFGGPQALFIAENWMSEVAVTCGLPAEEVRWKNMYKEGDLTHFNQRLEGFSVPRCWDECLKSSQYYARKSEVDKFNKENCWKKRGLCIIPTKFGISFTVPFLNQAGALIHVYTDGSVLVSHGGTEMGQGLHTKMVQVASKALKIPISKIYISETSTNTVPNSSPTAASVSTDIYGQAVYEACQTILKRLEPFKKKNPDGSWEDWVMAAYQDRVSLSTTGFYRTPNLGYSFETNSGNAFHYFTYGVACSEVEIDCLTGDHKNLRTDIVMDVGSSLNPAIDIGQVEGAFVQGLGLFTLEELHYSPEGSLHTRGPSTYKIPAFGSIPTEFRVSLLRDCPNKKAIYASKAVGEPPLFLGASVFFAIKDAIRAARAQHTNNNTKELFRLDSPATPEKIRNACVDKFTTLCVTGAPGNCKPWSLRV
# T2 sequence (P0ABP8 2-239): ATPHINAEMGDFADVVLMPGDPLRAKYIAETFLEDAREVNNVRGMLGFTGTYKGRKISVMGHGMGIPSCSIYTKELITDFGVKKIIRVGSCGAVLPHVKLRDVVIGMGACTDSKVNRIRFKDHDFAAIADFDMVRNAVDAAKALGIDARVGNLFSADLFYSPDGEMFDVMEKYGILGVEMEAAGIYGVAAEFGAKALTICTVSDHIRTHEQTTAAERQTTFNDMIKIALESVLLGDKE
compound,measurement,setting,value
"c1cn2cc3nc[nH]c3nc2n1 [I, 1,N^2-ε2APu]",Kd,xanthine oxidase (XO) [1],~2.2 nM
O=c1[nH]c(=O)c2[nH]cnc2[nH]1 [xanthine],Ki,xanthine oxidase (XO) [2],3000 nM
"c1cn2c(n1)ncc1nc[nH]c12 [II, N^2,3-ε2APu]",Kd,[3],36200 nM
same,Kd,xanthine oxidase (XO) [4],~7.5 nM
